Test results taken from publication PMC11009412, “Pathogenic mutations of human phosphorylation sites affect protein–protein interactions” (Nature Communications, 2024).
Several values for one entry are separate records, joined by “and”; a condition that tells them apart may be missing. Equal values may be shown once. Entries after “also recorded” stand apart in the source; their conditions may differ. Non-standard residues stand in square brackets, D forms with d. Residues, ends and D or L forms follow the SMILES beside them. pS = N[C@@H](COP(=O)(O)O)C(=O)O

Key:
14-3-3 epsilon (YWHAE) = molecular target: T1, 14-3-3 epsilon (YWHAE) (Homo sapiens, UniProt P62258); test: Isothermal titration calorimetry (ITC) of GATAD1 peptides with 14-3-3ε; format: binding; conditions: 18 °C, 400 µM peptide in syringe, 25 µM 14-3-3ε in chamber, 20 mM HEPES pH 7.0, 150 mM NaCl, 2 mM DTT
T1 construct: residues 1 and 236-255 are disordered and therefore not visible in the electron density; GST (N, cleaved yes); made in house; host or cells: Escherichia coli C41 (DE3)
T1 sequence (P62258 1-255): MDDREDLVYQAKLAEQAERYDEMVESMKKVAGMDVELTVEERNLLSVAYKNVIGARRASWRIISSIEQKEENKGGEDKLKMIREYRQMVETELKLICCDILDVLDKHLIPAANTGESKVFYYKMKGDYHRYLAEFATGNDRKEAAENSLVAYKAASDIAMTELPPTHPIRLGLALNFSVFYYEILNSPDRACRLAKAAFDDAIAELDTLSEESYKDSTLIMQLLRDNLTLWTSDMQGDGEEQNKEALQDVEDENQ
Procedure: The 14-3-3ε (YWHAE) cDNA was purchased from Twist Bioscience in the pTwist Chlor High Copy vector and cloned into the pGEX6P1 plasmid (GE Healthcare) for recombinant expression as a GST-fusion protein followed by a Prescission protease cleavage site. The plasmid was freshly transformed into Escherichia coli C41 (DE3) cells. Cultures were grown in terrific broth supplemented with ampicillin (100 μg/ml) at 37 °C and 80 rpm until an optical density at 600 nm of 0.7 was reached. […] Cells were harvested by centrifugation at 4000 g and frozen at −20 °C.
Following resuspension in lysis buffer (50 mM HEPES/NaOH pH 7.5, 500 mM NaCl and 3 mM Dithiothreitol (DTT)) supplemented with 1 mg deoxyribonuclease I (DNaseI, Roche) and protease inhibitor 4-(2-Aminoethyl) benzenesulfonyl fluoride hydrochloride S7(AEBSF), cells were disrupted using a microfluidizer (Microfluidics). The cell extract was centrifuged at 55,000 g for 45 min at 4 °C to remove insoluble parts. The cleared supernatant was applied onto a prepacked Glutathione Sepharose 4B column (Cytiva) equilibrated in the lysis buffer. The column was extensively washed with lysis buffer. To cleave off the GST tag, 1 mg PreScission protease was diluted in 5 ml OCC buffer (50 mM HEPES/NaOH pH 7.5, 150 mM NaCl, and 3 mM DTT), applied to the column material, and incubated overnight at 4 °C. Cleaved 14-3-3ε protein was eluted from the column using OCC buffer, concentrated and loaded onto an 16/60 S200 column (Cytiva) equilibrated in SEC buffer (20 mM HEPES/NaOH pH 7.5, 150 mM NaCl and 2 mM DTT). Pure and homogenous 14-3-3ε was concentrated to 13 mg/ml, flash-frozen in liquid nitrogen, and stored at −80 °C until further use.
GATAD1 peptides used in these experiments were obtained from JPT peptide technologies with an N-terminus in amine and a C-terminus in amide form with 95% purity. ITC experiments were performed using a PEAQ-ITC microcalorimeter (Malvern). All titrations were performed at 18 °C with 400 µM peptide in the syringe and 25 µM 14-3-3ε in the reaction chamber. The protein and the titration components were dissolved in a buffer containing 20 mM HEPES pH 7.0, 150 mM NaCl, and 2 mM DTT. Malvern software was used for data visualization and fitting. The raw ITC results can be found in Supplementary Fig. 42.

[1] = test system: 14-3-3 proteins (beta/alpha, gamma, epsilon, zeta, eta and theta); test: Alanine scanning PRISMA pull-down, 14-3-3 proteins; format: binding, human; conditions: PRISMA pull-down from HEK-293T lysate, LFQ, triplicates
Text: In this experiment, each amino acid from the −5 to +5 positions surrounding the phosphorylated residue was mutated to alanine, except for original alanine residues which were mutated to glycine. The experiment also included the wild-type phosphorylated, wild-type non-phosphorylated, disease-associated mutant, and aspartic acid mutant peptides. These 15 peptides were synthesized on a cellulose membrane in triplicates (n = 3 biological replicates) to facilitate the pull-down of proteins from HEK-293T cell lysate. The synthesis of peptides, pull-downs, and sample preparation for mass spectrometry followed the procedures described earlier for the PRISMA screen. Subsequently, samples were eluted from StageTips using a solution containing 50% acetonitrile and 0.1% formic acid, dried, and resuspended in a solution containing 3% acetonitrile and 0.1% formic acid. […]
The acquired mass spectra were subjected to further analysis using MaxQuant (version 1.6.3.4). […] The LFQ values of significant proteins were z-scored by row and hierarchical clustering was performed (Fig. 6A and Supplementary Data 5). To better visualize the 14-3-3 proteins, their LFQ values were extracted from the whole table and were z scored and clustered individually (Fig. 5C).

GRB2 = test: PRISMA peptide pull-down screen, GRB2 binding to the EGFR control peptide; set-up: species or system human; conditions: PRISMA pull-down from SILAC-labelled HEK-293 lysate; in all three replicates
Text: (§1) A total of 117 peptides, consisting of 15 amino acids each, were synthesized in situ on a cellulose membrane using SPOT synthesis techniques[25] provided by JPT Peptide Technologies in Berlin, Germany. Among these peptides, 39 were wild-type non-phosphorylated, 39 were mutated, and 39 were phosphorylated. Whenever possible, the mutation site was positioned at position 7, which is in the center of the immobilized peptides, with their C-termini serving as the point of immobilization.
(§2) For the experimental procedure, three membranes were initially incubated with the lysis buffer (HEPES (50 mM, pH 7.9), NaCl (150 mM), EGTA (1 mM), MgCl2 (1 mM), glycerol (20%), NP-40 (1%), SDS (0.1%), and sodium deoxycholate (0.5%)). The membranes were incubated with the lysis buffer until completely moistened. […]
(§3) HEK-293 cells were lysed with the lysis buffer and the protein concentration was measured using DC protein assay (Bio-Rad). […]
(§4) During the analysis, peptides were eluted from the analytical column at a flow rate of 500 nl/min, employing a gradient as follows: 5 to 10% B over 5 min, 10 to 40% B over 60 min, 40 to 99% B over 5 min, and maintaining 99% B for 5 min. The samples were measured in the orbitrap fusion mass spectrometer using the following methods: a full scan was performed with a resolution of 120,000 over an m/z range of 300–1500. […]

14-3-3 family proteins = test: PRISMA peptide pull-down screen, 14-3-3 binding to GATAD1 peptides; set-up: species or system human; conditions: LFQ volcano plot and SILAC scatter plot; HEK-293 lysate, triplicates
Text: as §1, §2, §3, §4

LRNTKYKSAPAAEKK [GATAD1, wild-type non-phosphorylated GATAD1 15-mer; ITC form with C-terminus in amide form]
Interaction with 14-3-3ε by ITC (in words) (14-3-3 epsilon (YWHAE)): do not interact
Interaction with 14-3-3ε by ITC (in words) (14-3-3 epsilon (YWHAE); listed as non-phosphorylated wild-type peptide): Neither the non-phosphorylated wild-type peptide nor the peptide with the disease-linked S102P mutation showed detectable binding

LRNTKYKEAPAAEKK [S102E, phosphomimetic S102E mutant GATAD1 peptide]
Interaction with 14-3-3ε by ITC (in words) (14-3-3 epsilon (YWHAE)): do not interact

LRNTKYKDAPAAEKK [S102D, phosphomimetic S102D mutant GATAD1 peptide]
14-3-3 proteins pulled down in alanine scanning (in words) [1]: did not interact
Interaction with 14-3-3ε by ITC (in words) (14-3-3 epsilon (YWHAE)): do not interact

TFLPVPEpYINQSVPK [EGFR_phos, positive control, well-characterized EGFR-derived phosphopeptide]
SILAC ratio phos/mut of GRB2 (GRB2): > 20
SILAC ratio phos/wt of GRB2 (GRB2): > 20

CC(C)C[C@H](N)C(=O)N[C@@H](CCCNC(=N)N)C(=O)N[C@@H](CC(N)=O)C(=O)N[C@H](C(=O)N[C@@H](CCCCN)C(=O)N[C@@H](Cc1ccc(O)cc1)C(=O)N[C@@H](CCCCN)C(=O)N[C@@H](COP(=O)(O)O)C(=O)N[C@@H](C)C(=O)N1CCC[C@H]1C(=O)N[C@@H](C)C(=O)N[C@@H](C)C(=O)N[C@@H](CCC(=O)O)C(=O)N[C@@H](CCCCN)C(=O)N[C@@H](CCCCN)C(N)=O)[C@@H](C)O [GATAD1_phos] (H-LRNTKYK[pS]APAAEKK-NH2)
N (stoichiometry) by ITC (14-3-3 epsilon (YWHAE)): 1.42 ± 0.04
Kd (14-3-3 epsilon (YWHAE); PEAQ-ITC, peptides N-terminal amine, C-terminal amide, read-out: Kd (binding constant) by ITC): ~3 µM and 3.4 µM
Specific and differential binding of 14-3-3 proteins in PRISMA (in words) (14-3-3 family proteins): specifically interacts with the multiple 14-3-3 protein family members

LRNTKYKPAPAAEKK [GATAD1_Ser102Pro, GATAD1 15-mer with the disease-linked S102P mutation]
Interaction with 14-3-3ε by ITC (in words) (14-3-3 epsilon (YWHAE)): Neither the non-phosphorylated wild-type peptide nor the peptide with the disease-linked S102P mutation showed detectable binding; also recorded: do not interact
